Data taken from ChEMBL document CHEMBL1201862, “PubChem BioAssay data set” (2004).
Activity calls are given as the source filed them.

Assays:
[1] = target: T1, Short transient receptor potential channel 4 (Mus musculus, UniProt Q9QUQ5); assay: block of DAMGO-driven TRPC4 calcium entry – cell-based, HEK293 TRPC4/mu-opioid, Fluo-4 calcium, dose response (AID 434942); type: functional;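 further: potency of inhibitors blocking the TRPC4 calcium response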
T1 sequence (Q9QUQ5 whole entry): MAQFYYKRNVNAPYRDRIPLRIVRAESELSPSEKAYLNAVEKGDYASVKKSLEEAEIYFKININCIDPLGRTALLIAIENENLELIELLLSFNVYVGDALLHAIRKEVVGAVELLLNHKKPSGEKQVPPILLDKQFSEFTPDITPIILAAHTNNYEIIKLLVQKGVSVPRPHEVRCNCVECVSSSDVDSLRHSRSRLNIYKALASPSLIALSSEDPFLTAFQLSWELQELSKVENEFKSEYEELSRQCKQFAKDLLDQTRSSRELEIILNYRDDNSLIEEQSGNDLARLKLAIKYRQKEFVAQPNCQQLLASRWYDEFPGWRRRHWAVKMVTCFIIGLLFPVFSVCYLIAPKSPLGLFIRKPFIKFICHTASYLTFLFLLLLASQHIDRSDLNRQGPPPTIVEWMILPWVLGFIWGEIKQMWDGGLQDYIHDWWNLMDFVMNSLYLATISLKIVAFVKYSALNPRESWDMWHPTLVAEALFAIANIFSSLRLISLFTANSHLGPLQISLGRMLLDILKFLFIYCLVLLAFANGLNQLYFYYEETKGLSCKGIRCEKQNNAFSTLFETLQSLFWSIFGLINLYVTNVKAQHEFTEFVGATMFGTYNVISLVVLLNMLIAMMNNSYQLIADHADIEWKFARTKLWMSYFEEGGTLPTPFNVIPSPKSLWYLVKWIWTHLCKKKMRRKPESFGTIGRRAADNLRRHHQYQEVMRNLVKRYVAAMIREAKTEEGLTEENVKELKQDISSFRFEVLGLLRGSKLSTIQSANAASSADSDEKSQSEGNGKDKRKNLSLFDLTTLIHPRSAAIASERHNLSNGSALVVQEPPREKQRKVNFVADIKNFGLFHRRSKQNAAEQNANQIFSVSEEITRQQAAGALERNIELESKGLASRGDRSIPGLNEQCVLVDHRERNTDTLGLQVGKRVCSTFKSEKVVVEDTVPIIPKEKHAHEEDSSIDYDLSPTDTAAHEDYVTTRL

[2] = target: T2, Apoptotic protease-activating factor 1 (Homo sapiens, UniProt O14727); type: functional
T2 sequence (O14727 whole entry): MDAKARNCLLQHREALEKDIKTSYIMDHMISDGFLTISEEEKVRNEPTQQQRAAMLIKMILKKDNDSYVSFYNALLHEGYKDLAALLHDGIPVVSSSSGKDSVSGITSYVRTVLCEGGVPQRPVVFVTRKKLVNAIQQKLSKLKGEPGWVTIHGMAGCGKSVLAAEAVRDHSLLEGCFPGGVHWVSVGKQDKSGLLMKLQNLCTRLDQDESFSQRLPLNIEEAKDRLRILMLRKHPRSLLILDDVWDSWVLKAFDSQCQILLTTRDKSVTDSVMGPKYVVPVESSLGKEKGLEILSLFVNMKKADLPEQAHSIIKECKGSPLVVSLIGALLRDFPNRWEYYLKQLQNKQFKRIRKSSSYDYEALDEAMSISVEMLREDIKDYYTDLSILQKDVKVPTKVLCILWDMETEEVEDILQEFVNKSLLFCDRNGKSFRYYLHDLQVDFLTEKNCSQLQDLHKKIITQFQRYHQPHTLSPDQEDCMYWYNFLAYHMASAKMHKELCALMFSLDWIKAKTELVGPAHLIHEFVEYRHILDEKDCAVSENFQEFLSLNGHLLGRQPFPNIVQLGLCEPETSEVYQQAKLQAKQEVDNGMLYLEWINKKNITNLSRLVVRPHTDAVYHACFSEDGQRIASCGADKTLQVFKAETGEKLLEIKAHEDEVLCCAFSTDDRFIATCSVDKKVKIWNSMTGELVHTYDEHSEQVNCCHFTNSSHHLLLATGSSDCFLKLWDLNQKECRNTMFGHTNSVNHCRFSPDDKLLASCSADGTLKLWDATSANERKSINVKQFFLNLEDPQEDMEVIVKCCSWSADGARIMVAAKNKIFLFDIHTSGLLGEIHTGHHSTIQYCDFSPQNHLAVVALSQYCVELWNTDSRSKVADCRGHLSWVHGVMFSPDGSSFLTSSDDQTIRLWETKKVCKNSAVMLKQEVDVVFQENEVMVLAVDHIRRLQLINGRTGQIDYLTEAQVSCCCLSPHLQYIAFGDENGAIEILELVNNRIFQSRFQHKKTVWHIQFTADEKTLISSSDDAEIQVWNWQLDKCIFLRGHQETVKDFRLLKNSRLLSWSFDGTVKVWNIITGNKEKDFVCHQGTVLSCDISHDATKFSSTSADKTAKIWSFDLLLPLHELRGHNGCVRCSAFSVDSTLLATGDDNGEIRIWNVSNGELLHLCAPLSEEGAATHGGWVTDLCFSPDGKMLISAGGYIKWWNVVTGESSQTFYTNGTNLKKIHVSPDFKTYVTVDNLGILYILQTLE

Nonstructural protein 1 = Nonstructural protein 1 (Influenza A virus, UniProt Q194T2); type: functional, Influenza A virus (A/California/07/2009(H1N1))
[3] = target: Beta-2 adrenergic receptor (Homo sapiens, UniProt P07550); assay: ADRB2 activation measured by internalization – cell-based, FAP fluorogen, flow cytometry, cherry pick 1, dose response (AID 588763); type: functional
[4] = target: T3, Nucleotide-binding oligomerization domain-containing protein 1 (Homo sapiens, UniProt Q9Y239); assay: blockers of NOD1 pathway activity – revised, SAR follow-up (AID 2333); type: functional
T3 sequence (Q9Y239 whole entry): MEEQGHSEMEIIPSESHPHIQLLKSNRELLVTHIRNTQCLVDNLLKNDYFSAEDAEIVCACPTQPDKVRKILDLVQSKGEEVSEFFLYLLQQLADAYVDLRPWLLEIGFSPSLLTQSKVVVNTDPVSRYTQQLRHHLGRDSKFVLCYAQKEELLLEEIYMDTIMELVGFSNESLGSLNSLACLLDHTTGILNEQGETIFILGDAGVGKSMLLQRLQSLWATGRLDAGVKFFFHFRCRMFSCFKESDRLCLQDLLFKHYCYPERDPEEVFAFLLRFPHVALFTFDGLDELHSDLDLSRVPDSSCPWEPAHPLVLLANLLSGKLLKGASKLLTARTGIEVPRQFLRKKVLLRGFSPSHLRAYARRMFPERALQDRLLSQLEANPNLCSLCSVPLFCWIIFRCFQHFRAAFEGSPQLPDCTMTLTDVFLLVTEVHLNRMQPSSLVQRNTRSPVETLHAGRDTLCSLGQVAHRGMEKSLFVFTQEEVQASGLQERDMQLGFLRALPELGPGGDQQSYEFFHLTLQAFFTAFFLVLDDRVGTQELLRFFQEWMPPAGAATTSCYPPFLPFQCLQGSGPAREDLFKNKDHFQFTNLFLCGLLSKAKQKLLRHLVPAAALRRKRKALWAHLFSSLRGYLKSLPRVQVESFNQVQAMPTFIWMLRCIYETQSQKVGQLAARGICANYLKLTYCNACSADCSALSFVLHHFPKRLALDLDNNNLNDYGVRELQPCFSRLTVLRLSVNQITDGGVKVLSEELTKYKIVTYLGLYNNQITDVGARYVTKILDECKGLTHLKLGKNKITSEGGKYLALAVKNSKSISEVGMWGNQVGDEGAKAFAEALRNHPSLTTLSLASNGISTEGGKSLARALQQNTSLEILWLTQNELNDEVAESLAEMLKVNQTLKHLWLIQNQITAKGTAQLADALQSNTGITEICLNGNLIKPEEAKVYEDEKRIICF

HEK293 = assay: cells; details: Homo sapiens;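 further: cells exposed to compound for 14 hours overnight before viability readout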
Tumor necrosis factor = Tumor necrosis factor (Homo sapiens, UniProt P01375); assay: analog potency on TNFa NF-kB signaling – cell-based, revised, SAR follow-up (AID 2337); type: functional
BJ [5] = assay: BJ-TERT fibroblast viability loss – cell-based, RAS-independent, luminescence, dose response (AID 1933); type: functional; details: Homo sapiens
BJ [6] = assay: cells; type: functional, cell-based; details: Homo sapiens
BJ [7] = assay: BJ-TERT-LT-ST fibroblast viability loss – cell-based, RAS-independent, luminescence, dose response (AID 1935); type: functional; details: Homo sapiens;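 further: BJ fibroblasts immortalized with TERT plus LT and ST oncogenes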
[8] = DRD fibroblast viability loss – cell-based, non-viral oncogenic, luminescence, dose response (AID 1934); type: functional; details: Homo sapiens
Streptokinase A = target: T4, Streptokinase A (Streptococcus pyogenes serotype M1, UniProt P10520); assay: viability-normalized secreted streptokinase activity reduction – plasminogen activation absorbance, OD405, dose response (AID 1914); type: functional, Streptococcus pyogenes M1 GAS;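 further: secreted streptokinase activity via plasminogen activation per viability signal from cell pellet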
T4 sequence (P10520 whole entry): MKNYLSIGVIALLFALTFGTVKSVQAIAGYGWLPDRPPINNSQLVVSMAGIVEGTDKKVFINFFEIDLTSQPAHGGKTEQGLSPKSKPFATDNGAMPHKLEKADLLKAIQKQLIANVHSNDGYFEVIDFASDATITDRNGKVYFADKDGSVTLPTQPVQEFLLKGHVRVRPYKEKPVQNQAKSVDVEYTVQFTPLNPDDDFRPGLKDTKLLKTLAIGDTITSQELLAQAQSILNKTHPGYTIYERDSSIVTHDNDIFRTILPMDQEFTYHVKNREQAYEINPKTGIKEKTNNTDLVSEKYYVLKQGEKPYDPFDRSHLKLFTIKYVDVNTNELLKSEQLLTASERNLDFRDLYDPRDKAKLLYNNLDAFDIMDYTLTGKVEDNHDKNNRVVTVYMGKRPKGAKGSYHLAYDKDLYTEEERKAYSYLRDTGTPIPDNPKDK

[9] = test system: Streptococcus sp. 'group A'; assay: Streptococcus pyogenes SK(-)GAS viability under kanamycin – luminescence, BacTiterGlo, confirmation, counter-screen for streptokinase expression inhibitor project, dose response (AID 1900); type: functional, organism-based
[10] = target: T5, Microphthalmia-associated transcription factor (Homo sapiens, UniProt O75030); assay: reducers of TRPM1 reporter luminescence, concentration series – cell-based, SK-MEL-5, cherry-picked, set 3, MITF inhibitor project, dose response (AID 493073); type: functional;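 further: SK-MEL-5 melanoma cells with luciferase driven by the MITF target TRPM1 promoter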
T5 sequence (O75030 whole entry): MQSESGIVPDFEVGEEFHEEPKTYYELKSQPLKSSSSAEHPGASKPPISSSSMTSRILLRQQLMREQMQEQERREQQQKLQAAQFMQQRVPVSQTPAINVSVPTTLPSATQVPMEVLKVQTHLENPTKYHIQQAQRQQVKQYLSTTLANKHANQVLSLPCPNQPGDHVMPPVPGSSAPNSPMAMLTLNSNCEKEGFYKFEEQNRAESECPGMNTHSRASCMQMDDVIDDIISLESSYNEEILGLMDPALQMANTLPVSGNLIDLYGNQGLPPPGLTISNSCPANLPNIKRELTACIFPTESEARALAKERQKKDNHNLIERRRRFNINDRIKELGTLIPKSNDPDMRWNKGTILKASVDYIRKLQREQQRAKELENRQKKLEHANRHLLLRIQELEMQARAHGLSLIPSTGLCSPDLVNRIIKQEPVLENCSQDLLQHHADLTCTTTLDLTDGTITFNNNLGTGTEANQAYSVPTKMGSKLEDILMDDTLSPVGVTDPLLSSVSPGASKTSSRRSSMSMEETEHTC

Streptococcus = assay: GAS UMAA2166 growth inhibition – luminescence, BacTiterGlo, counter-screen for streptokinase expression inhibitor project, dose response (AID 1915); type: functional, organism-based;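 further: potency for reduction of bacterial viability or growth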
INS1 = assay: INS-1E survival protection against cytokine death – cell-based, luminescence, retest, dose response (AID 449756); type: functional; details: Rattus norvegicus;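 further: cell death triggered by IL-1 beta plus TNF-alpha plus IFN-gamma mixture; protective hits raise ATP signal compared with cytokine alone wells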

Chain of Tumor necrosis factor (P01375 whole entry): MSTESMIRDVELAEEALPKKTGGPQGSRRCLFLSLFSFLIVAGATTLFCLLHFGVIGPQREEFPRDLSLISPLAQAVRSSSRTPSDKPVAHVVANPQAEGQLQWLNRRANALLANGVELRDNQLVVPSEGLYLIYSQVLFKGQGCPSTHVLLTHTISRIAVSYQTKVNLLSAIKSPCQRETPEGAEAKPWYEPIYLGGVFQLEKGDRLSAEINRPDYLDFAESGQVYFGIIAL
Chain of Beta-2 adrenergic receptor (P07550 whole entry, the tested form may be a part): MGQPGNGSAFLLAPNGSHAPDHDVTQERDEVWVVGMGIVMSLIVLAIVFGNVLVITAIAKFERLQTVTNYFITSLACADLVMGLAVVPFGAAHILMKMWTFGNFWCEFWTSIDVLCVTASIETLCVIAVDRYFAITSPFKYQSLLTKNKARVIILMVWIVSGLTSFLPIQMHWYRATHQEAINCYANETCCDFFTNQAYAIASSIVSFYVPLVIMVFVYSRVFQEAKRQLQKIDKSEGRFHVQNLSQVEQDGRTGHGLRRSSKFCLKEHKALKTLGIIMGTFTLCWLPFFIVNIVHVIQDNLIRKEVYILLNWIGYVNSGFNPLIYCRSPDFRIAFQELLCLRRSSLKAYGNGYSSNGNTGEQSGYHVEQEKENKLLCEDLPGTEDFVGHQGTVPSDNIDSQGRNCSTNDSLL
Chain of Nonstructural protein 1 (Q194T2 whole entry): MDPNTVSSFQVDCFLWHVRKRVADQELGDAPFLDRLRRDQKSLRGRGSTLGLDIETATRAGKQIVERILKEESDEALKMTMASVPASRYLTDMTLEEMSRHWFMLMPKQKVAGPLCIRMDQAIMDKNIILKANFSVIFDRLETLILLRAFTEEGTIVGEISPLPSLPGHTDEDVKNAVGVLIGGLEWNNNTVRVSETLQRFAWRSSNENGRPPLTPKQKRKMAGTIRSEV

CC1(C)CC2CC(C)(CN2C(=O)c2cc(-c3ccc(O)cc3)on2)C1 (stereo not given)
EC50 [1]: 5.31 µM (active)

O=C1C(NS(=O)(=O)c2ccc(Cl)cc2)=C(N2CCCCC2)C(=O)c2ccccc21
IC50 [2]: 30.5 µM (active) | IC50 (Nonstructural protein 1): 11.4 µM (active)

CC(C)(c1ccccc1)c1ccc(OCCCNCCO)cc1
EC50 [1]: 4.22 µM (active)

CCC(=O)Nc1ccc(-c2nn3c(C)nnc3s2)cc1C
EC50 [3]: 3.12 µM (active)

O=C(CN1CCCCC1)N1c2ccccc2Oc2ccccc21
EC50 [1]: 6.68 µM (active)

COc1ccc(NC(=O)c2ccc(CN3CCCCC3)cc2)cc1
IC50 [4]: > 20 µM (inactive) | IC50 (HEK293): > 20 µM (inactive) | IC50 (Tumor necrosis factor): > 20 µM (inactive)

O=C(Nc1ccc(S(=O)(=O)N2CCCCC2)cc1)c1ccc(CN2CCc3ccccc3C2)cc1
IC50 [4]: 0.432 µM (active) | IC50 (HEK293): 19.5 µM (active) | EC50 (BJ [5]): 23.9 µM (active) | IC50 (Tumor necrosis factor): 0.616 µM (active) | EC50 (BJ [6]): 51.8 µM (active) | EC50 (BJ [7]): > 150 µM (not active) | EC50 [8]: 22 µM (active)

CCc1ccc(CNC(=O)c2ccc(NC(=O)C3=CSCCO3)cc2)cc1
EC50 [3]: 0.0949 µM (active)

CCCCCn1cc[n+](C2=C([N-]S(=O)(=O)c3ccccc3)C(=O)c3ccccc3C2=O)c1
EC50 (Streptokinase A): 3.69 µM (active) | EC50 [9]: 1.15 µM (active) | AC50 [10]: 5.9 µM (active) | EC50 (Streptococcus): 13.3 µM (active) | AC50 (INS1): 4.7 µM (active) | IC50 [2]: 13.8 µM (active)

Clc1ccc(CN2C3=NCCN3c3ccccc32)cc1Cl
EC50 [1]: 1.19 µM (active)

COCCn1c(SCc2cc(C(C)=O)ccc2OC)nc2cc(Cl)ccc2c1=O
EC50 [1]: 3.35 µM (active)
